In article PMC5786306, “An AKAP-Lbc-RhoA interaction inhibitor promotes the translocation of aquaporin-2 to the plasma membrane of renal collecting duct principal cells” (PLoS ONE, 2018):

How the values were obtained:
[1] = test system: Gα12- or Gαq-mediated RhoA activation in HEK293 cells; assay: Rhotekin pulldown of active RhoA in HEK293 cells; format: cell-based, human; settings: 50 μM
Protocol: (A) Full length AKAP-Lbc (AKAP13) and the indicated GEFs were transiently expressed in HEK293 cells. […] (B) Scaff10 inhibits Gα12- but not Gαq-mediated RhoA activation. The indicated Gα12 and Gαq-mutants were transiently co-expressed with AKAP-Lbc and p63RhoGEF in HEK293 cells as indicated. The cells were left untreated or incubated with Scaff10 (50 μM). The fraction of active RhoA was determined using Rhotekin pulldown assays. Shown is one representative out of three experiments. All GEF constructs were in pCMV3a and Myc-tagged (30 ng per transfection). Expression of AKAP-Lbc, LARG and PDZ-RhoGEF is shown in Fig 7 of the main manuscript. […] Lower panel: Corresponding values of fluorescence to upper panel. […] Lower panel: Corresponding values of fluorescence to upper panel. (B) F norm = normalised fluorescence (fluoresence steady state/fluorescence initial state) indicated in ‰. […] The viability of the indicated cells was determined using a CellTiter-Glo®Luminescent Cell Viability Assay (Promega, Wisconsin, USA) according to the manufacturer's instructions. The assay is based on the quantification of ATP as an indicator of metabolically active cells. […] Viability was assessed after 1 and 24 h incubation with Scaff10-8 in the indicated concentrations. An equal volume of CellTiter-Glo Reagent was added, plates were shaken and luminescence monitored over time with the plates held at 22°C. […]

[2] = test system: Cdc42 activity in IMCD cells; assay: PAK-1-PBD pull down, Cdc42; format: cell-based, rat; settings: 30 μM, 1 h
Protocol: The (p21) binding domain (PBD) of p21 activated kinase 1 protein (PAK-1) spans amino acids 67–150 of PAK-1 and binds specifically to the GTP-bound Rac-1 and Cdc42. The PBD was prepared as described and used for selective precipitation of the activated GTPases from IMCD cells. The PBD was expressed as a GST-fusion protein in DH5α E-coli cells, the cells were lysed using a French press, and the fusion protein was purified with Glutathione Sepharose 4 Fast Flow GST-tagged protein purification resin kit according to the manufacturer’s instructions (GE Healthcare; #17-5132-01). The PAK-1-PBD pull down was carried out with 400–500 μg protein from IMCD cell lysates. Proteins were eluted from the beads by boiling with Laemmli sample buffer, and analyzed by Western blotting. The membranes were first probed for Cdc42, and the GTP-bound active fraction of the protein was related to total Cdc42, and to the loading control GAPDH. The membranes were re-probed for Rac-1 accordingly to determine the active GTP-bound Rac-1 fraction.
Fig 10 Scaff10-8 inhibits activation of RhoA in primary IMCD cells. IMCD cells were incubated with Scaff10-8 (30 μM, 1 h). DMSO (1%), the solvent of Scaff10-8, served as a control. […] Signals were semiquantitatively analyzed by densitometry. […] Statistically significant differences were determined using one-way ANOVA with posthoc Bonferroni. […]

SMILES | RhoA activation by constitutively active G12 (G12QL) with AKAP-Lbc [1] | RhoA activation through constitutively active Gq (GqRC) [1] | activity of Cdc42 [2]
COc1ccc(-c2coc3cc4oc(=O)c(C)c(C)c4cc23)cc1 [Scaff10, 3-(4-Methoxyphenyl)-5,6-dimethyl-furo[3,2-g]chromen-7-one] | abolished this activation | did not affect | 
COc1ccc(-c2coc3cc4oc(=O)c(CCC(=O)O)c(C)c4cc23)cc1 [Scaff10-8, 3-[3-(4-Methoxyphenyl)-5-methyl-7-oxo-furo[3,2-g]chromen-6-yl] propanoic acid] |  |  | did not influence activities
